Source: patent publication US20070213311A1, “Modulators of 11-beta hydroxyl steroid dehydrogenase type 1, pharmaceutical compositions thereof, and methods of using the same” (priority 2006, published 2007)
pIC50: −log10 of the molar value.

Assays:
[1] = target: T1, full-length human 11βHSD1 (Homo sapiens, UniProt P28845); assay: Enzymatic assay of 11βHSD1 (Scintillation Proximity Assay, clarified lysates of HEK-293 transfectants); assay type: biochemical; settings: SPA, 25 nM 3H-cortisone, 400 μM NADPH, 37° C. for one hour
T1 construct: made in house; host or cells: HEK-293 transient transfectants; clarified lysate, not purified
Method: Enzymatic Assay of 11βHSD1
All in vitro assays were performed with clarified lysates as the source of 11βHSD1 activity. HEK-293 transient transfectants expressing an epitope-tagged version of full-length human 11βHSD1 were harvested by centrifugation. Roughly 2×10^7 cells were resuspended in 40 mL of lysis buffer (25 mM Tris-HCl, pH 7.5, 0.1 M NaCl, 1 mM MgCl2 and 250 mM sucrose) and lysed in a microfluidizer. Lysates were clarified by centrifugation and the supernatants were aliquoted and frozen.
Inhibition of 11βHSD1 by test compounds was assessed in vitro by a Scintillation Proximity Assay (SPA). Dry test compounds were dissolved at 5 mM in DMSO. These were diluted in DMSO to suitable concentrations for the SPA assay. 0.8 μL of 2-fold serial dilutions of compounds were dotted on 384 well plates in DMSO such that 3 logs of compound concentration were covered. 20 μL of clarified lysate was added to each well. Reactions were initiated by addition of 20 μL of substrate-cofactor mix in assay buffer (25 mM Tris-HCl, pH 7.5, 0.1 M NaCl, 1 mM MgCl2) to final concentrations of 400 μM NADPH, 25 nM ^3H-cortisone and 0.007% Triton X-100. Plates were incubated at 37° C. for one hour. […] Quenched plates were incubated for a minimum of 30 minutes at RT prior to reading on a Topcount scintillation counter. […]

11βHSD1 in the eye = target: T2, 11βHSD1 in the eye (Homo sapiens, UniProt P28845); settings: healthy volunteers, after seven days of carbenoxolone treatment; cited from earlier work
T2 construct: 11βHSD1 has been localized to NPE cells; host or cells: eye of healthy volunteers, in vivo
T2 sequence (P28845 whole entry): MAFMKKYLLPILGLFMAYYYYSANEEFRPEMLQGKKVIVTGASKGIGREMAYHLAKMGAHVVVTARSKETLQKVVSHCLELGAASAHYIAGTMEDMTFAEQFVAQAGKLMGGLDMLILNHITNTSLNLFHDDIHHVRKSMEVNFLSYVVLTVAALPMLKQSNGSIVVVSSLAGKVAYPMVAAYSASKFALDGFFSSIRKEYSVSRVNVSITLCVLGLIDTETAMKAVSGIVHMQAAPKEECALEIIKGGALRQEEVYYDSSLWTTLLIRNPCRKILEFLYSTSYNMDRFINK

T1 sequence (P28845 whole entry): as above

`O=C1OC2(CCN(C(=O)C(O)c3ccc(Br)cc3F)C2)c2ccccc21` (centres unmarked) [Example 1, 1′-[(4-Bromo-2-fluorophenyl)(hydroxy)acetyl]-3H-spiro[2-benzofuran-1,3′-pyrrolidin]-3-one] gave a pIC50 [1] of over 6.00.

In the case of `CC1(C)[C@@H](OC(=O)CCC(=O)O)CC[C@]2(C)[C@H]3C(=O)C=C4[C@@H]5C[C@@](C)(C(=O)O)CC[C@]5(C)CC[C@@]4(C)[C@]3(C)CC[C@@H]12` [carbenoxolone], the “IOP was reduced by” value (11βHSD1 in the eye) is given as 18%.
